Here are results for two molecules from patent US20100099642A1, “TGF-BETA STIMULANT AND FURTHER AGENT TO REDUCE SIDE EFFECTS” (TCP Innovations Limited, priority 2007, published 2010).

The structures appear in SMILES notation.

The test system of experiment [1] is tgfb2 mRNA. As to the kind of experiment: tgfb2 mRNA level by quantitative PCR in human aortic vascular smooth muscle cells. As to conditions: 24 hrs, normalised to TBP, vs vehicle. The experiment is classed as cell-based. The method, then: (1995) Cardiovasc. Res. 29:848-55). […] The cells were then incubated for either 24 hrs or 72 hrs depending on the experiment. All treatment conditions were established in triplicate. The level of mRNA for tgfb1, tgfb2 and tgfb3 were estimated by quantitative PCR. The media was removed and RNA was carefully prepared using the Ambion RNAqueous4PCR kit (Ambion#1914) in accordance with the manufacturer's instructions. The purity of the RNA and the quantity was assessed spectrophotometrically. […] This analysis results in both a gel-like image as well as electrophoretic data. Indications of RNA degradation are: (a) decreasing ratio of ribosomal bands (b) additional peaks bellow the ribosomal bands (c) Decrease in overall RNA signal (d) shift towards shorter fragments. […] Next, the RNA was converted to cDNA using the ABI High-Capacity cDNA Archive Kit, in accordance with manufacturer's instructions. The qPCR assay was then set up as follow: all cDNA samples were diluted to 180 μl total volume using Molecular grade water. Samples were vortexed to ensure thorough mixing. cDNA was aliquoted into ABI 384 well plates using a multi-channel pipette, 4.5 μl of sample into each well. Samples were assayed in triplicate (that is, nine determinations in total were made for each condition, being three separate assays on each of three replicate culture wells). The assay mix and Universal Master Mix were prepared and aliquoted across the 384 well plates 5.5 μl in each well, using a single channel pipette. The final composition of each reaction (10 μl) being: Primer/Probe assay mix (×20)=0.5 μl; Universal Master Mix=5 μl; cDNA=4.5 μl. […] Quantitative PCR was performed using several primer/probe sets. […] In all quantitative PCR experiments, several additional controls were included: firstly, a control for each sample is run with no reverse transcription to ensure the mRNA sample is not contaminated with genomic DNA (although the manual design probe/primer sets were all selected to cross an exon/exon boundary, ensuring no detectable amplicon is produced from genomic DNA templates). […]

In experiment [2] the test system is DBA/1 mice. As to the kind of experiment: collagen-induced arthritis, footpad thickness in DBA/1 mice. As to conditions: Tamoxifen 1 mg/kg/day p.o, aspirin 30 mg/kg/day p.o, from the booster injection onwards. The experiment is classed as in vivo, mouse. The method, then:
Collagen-induced arthritis was induced in adult male DBA/1 mice as previously described (Courtenay et al. (1980) Nature 283:666-8). Adult (12 week old) male DBA/1 mice were divided into groups of six animals. Mice received 100 μg per mouse of bovine type II collagen (Sigma) in Freunds Complete Adjuvant (FCA) by the subcutaneous route, while a control group received an identical injection of type I collagen in FCA. Twenty-one days later, all groups of mice received an intraperitoneal booster injection containing 100 μg per mouse of the same collagen type as previously, but in the absence of adjuvant. […] Foodpad thickness was determined each day using a digital caliper EC1507 (Moore & Wright) accurate to 0.01 mm. The thickness of each footpad was determined three times on each day by a single operator blind to the treatment condition of the mouse, and the footpad thickness of each mouse on each day was reported as the mean for the three measurements for all four paws. Errors represent the standard error of the mean among the six animals in each group.

Regarding `CC(=O)Oc1ccccc1C(=O)O` [Aspirin, acetylsalicylic acid], the entries for the “Level of tgfb2 mRNA, estimated by qPCR” value in experiment [1] (10 μM A), in experiment [1] (33 μM A) and in experiment [1] (100 μM A) were 0.92 ± 0.10 fold-change, 1.00 ± 0.17 fold-change and 1.03 ± 0.16 fold-change, respectively.

With `CC/C(=C(\c1ccccc1)c1ccc(OCCN(C)C)cc1)c1ccccc1` [Tamoxifen], the “reduction of maximal collagen-II induced footpad swelling” value in experiment [2] amounted to 36%.
